The text below walks through data of patent US20130109682A1, “CYCLIC ETHER COMPOUNDS USEFUL AS KINASE INHIBITORS” (NOVARTIS AG, priority 2010, published 2013).

Common to all, as to type: biochemical
The target of one assay is PIM2 (Homo sapiens, UniProt Q9P1W9). Briefly: Pim 2 AlphaScreen assay (high ATP). The conditions noted are these: read-out: Pim2 IC50. Summed up:
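This is a bead-based AlphaScreen run at high ATP (11-125× Km) with biotin-Bad peptide (100 nM in the substrate mix), in 50 mM Hepes pH 7.5, 5 mM MgCl2, 0.05% BSA, 0.01% Tween-20, 1 mM DTT and 2.5% DMSO final. After ~2 h the reaction was stopped with EDTA. Phospho-peptide was detected overnight with anti-phospho Ser/Thr antibody on Protein A and streptavidin beads, giving IC50.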
For orientation: In Alpha technology, singlet oxygen from a donor bead excites a nearby acceptor bead.

The target of another assay is FGFR3 kinase (Homo sapiens, UniProt P22607). The assay is described as follows: FGFR3 kinase inhibition assay (LanthaScreen TR-FRET). The protocol: FGFR3 Kinase Inhibition Assay
LanthaScreen™ is the detection of Time-Resolved Fluorescence Resonance Energy Transfer (TR-FRET) using lanthanide chelates to measure interactions between various binding partners. The application of TR-FRET to assay kinase activity was first described by Mathis (1995). A TR-FRET assay was used to measure FGFR3 kinase inhibitory activity. The assay panel was run on a Biomek FX liquid handling workstations. To the assay plates containing […] compound or control solutions, 4.5 μL of buffer A (50 mM TRIS-HCl pH 7.4, 2 mM DTT, 0.02% Tween 20, 0.02 mM Na3VO4, H2O nanpure) including a generic concentration of ATP (2 μM f.c.) was added per well, followed by 4.5 μL of buffer B (4 uM ATP in Buffer A) including a generic concentration of polyEAY (50 nM f.c.), FGFR3 kinase, and divalent cations. Final concentration of kinase and cations were: [FGFR3 kinase]=0.20 nM, [Mg]=3 mM, [Mn]=3 mM. After 1 hour of incubation the kinase reactions were stopped by the addition of 4.5 μL of stop solution D (50 mM EDTA, 20 mM TRIS-HCl pH 7.4, 0.04% NP-40) immediately followed by 4.5 μL of buffer A (50 mM TRIS-HCl pH 7.4, 2 mM DTT, 0.02% Tween 20, 0.02 mM Na3VO4, H2O nanpure) including the Tb-labeled P-20 antibody to give a total detection volume of 18 μL. After an incubation time of 45 min in the dark, the plates were transferred into the Pherastar fluorescence reader for counting. The effect of compound on the enzymatic activity was obtained from the linear progress curves and determined from one reading (end point measurement).
On the technique in general: In TR-FRET formats the signal depends on donor and acceptor labels being close together.

A further assay has as its target PKCα (Homo sapiens, UniProt P17252). The assay is described as follows: PKCα kinase Caliper assay. The conditions noted are these: PKCα Caliper assay; read-out: PKC IC50. In short, it runs like this:
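Eight-point compound dilutions incubated with PKCα and peptide/ATP for 60 min at 30° C in 50 mM HEPES pH 7.5, 1 mM DTT, 0.02% Tween20, 0.02% BSA, 0.6% DMSO. Activity from phospho-peptide formed, separated by microfluidic mobility shift.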

The next assay deals with PDGFRaV561D kinase (Homo sapiens, UniProt P16234, V561D). The assay is described as follows: PDGFRaV561D kinase inhibition assay (LanthaScreen TR-FRET). The settings on record: read-out: PDGFRa IC50. In short, it runs like this:
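TR-FRET end-point assay with 4.4 nM PDGFRa V561D kinase, 50 nM polyEAY, 10 mM Mn and 2 μM ATP (f.c.) in Tris pH 7.4 buffer. After 1 h, EDTA stop and Tb-labeled P-20 antibody added; read after 45 min in the dark.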

FGFR3 kinase, sequence (P22607 23-806): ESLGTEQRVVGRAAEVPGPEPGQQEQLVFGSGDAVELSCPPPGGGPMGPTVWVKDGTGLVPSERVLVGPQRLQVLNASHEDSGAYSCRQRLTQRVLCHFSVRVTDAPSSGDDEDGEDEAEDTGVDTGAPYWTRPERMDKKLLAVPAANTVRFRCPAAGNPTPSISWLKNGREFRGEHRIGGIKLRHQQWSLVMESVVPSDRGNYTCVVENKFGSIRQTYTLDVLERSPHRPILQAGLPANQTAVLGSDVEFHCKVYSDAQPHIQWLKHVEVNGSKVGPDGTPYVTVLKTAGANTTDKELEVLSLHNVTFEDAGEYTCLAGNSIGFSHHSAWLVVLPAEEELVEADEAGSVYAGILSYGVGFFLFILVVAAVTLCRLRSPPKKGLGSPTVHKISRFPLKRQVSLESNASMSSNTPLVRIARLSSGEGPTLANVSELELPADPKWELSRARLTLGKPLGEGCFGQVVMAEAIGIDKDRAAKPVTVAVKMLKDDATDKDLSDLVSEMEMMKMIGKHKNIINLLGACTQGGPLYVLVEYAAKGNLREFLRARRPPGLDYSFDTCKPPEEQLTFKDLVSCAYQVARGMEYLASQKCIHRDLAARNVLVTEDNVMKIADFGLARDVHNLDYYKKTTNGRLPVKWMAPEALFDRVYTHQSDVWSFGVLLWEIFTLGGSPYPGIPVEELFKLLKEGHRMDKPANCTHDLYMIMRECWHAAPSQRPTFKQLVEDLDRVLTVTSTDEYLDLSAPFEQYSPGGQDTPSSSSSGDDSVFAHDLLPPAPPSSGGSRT
PIM2, sequence (Q9P1W9 whole entry): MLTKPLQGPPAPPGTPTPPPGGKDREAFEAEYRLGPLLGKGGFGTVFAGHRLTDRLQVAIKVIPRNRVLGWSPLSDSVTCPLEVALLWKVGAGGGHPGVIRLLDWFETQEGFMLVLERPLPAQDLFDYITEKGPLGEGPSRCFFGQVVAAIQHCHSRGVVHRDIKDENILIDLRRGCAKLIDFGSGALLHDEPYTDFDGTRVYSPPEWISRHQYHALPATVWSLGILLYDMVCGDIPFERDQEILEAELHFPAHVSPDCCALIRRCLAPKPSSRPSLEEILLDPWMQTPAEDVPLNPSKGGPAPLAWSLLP
PDGFRaV561D kinase, sequence (P16234 24-1089 V561D): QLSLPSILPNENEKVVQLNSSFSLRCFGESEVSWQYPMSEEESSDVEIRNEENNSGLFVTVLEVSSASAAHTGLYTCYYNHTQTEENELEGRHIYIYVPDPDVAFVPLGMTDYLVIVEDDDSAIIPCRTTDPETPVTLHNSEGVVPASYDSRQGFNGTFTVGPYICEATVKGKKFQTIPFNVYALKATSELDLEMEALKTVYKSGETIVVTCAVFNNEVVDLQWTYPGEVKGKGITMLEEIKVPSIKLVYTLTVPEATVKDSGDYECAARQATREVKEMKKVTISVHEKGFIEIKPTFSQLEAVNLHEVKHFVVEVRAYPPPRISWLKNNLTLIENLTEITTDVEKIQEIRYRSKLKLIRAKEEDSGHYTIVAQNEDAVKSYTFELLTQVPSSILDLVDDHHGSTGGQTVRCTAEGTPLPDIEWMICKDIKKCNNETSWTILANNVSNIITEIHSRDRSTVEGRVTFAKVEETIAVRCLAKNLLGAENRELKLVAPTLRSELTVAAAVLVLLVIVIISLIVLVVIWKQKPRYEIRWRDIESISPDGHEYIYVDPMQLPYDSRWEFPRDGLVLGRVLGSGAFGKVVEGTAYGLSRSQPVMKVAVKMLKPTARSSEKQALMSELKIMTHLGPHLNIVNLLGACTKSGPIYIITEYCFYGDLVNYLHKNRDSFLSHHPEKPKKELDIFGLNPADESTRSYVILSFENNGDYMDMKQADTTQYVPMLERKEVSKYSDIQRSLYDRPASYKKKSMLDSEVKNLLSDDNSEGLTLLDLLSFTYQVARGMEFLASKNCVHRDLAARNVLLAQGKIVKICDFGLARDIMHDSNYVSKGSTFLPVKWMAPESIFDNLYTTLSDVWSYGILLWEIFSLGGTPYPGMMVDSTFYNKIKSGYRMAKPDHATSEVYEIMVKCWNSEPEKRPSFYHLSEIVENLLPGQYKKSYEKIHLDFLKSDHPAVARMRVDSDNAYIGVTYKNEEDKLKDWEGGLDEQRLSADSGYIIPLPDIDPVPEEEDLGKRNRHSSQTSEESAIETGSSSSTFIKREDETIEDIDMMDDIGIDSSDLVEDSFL

The IC50 is the midpoint of a concentration-inhibition curve. As for `CC1(C)C[C@H](N)C[C@@H](c2ccncc2NC(=O)c2nc(-c3ccccc3)cnc2N)O1` [Example 297, 3-amino-N-(4-((2S,4R)-4-amino-6,6-dimethyltetrahydro-2H-pyran-2-yl)pyridin-3-yl)-6-phenylpyrazine-2-carboxamide], the half-maximal inhibitory concentration (IC50) on PIM2 worked out at 514 nM; on FGFR3 kinase it was 1600 nM; on PKCα it was 10 nM; at PDGFRaV561D kinase, 150 nM.
As for `CCC[C@H]1O[C@@H](c2ccncc2NC(=O)c2nc(-c3ccccc3)cnc2N)C[C@@H](O)[C@@H]1O` [Example 340, 3-amino-N-(4-((2R,4R,5S,6R)-4,5-dihydroxy-6-propyltetrahydro-2H-pyran-2-yl)pyridin-3-yl)-6-phenylpyrazine-2-carboxamide], the 50% inhibitory concentration (IC50) was 3650 nM at PIM2, 210 nM at FGFR3 kinase, 860 nM on PKCα and 810 nM at PDGFRaV561D kinase.
Consider `Nc1ncc(-c2ccccc2)nc1C(=O)Nc1cnccc1[C@H]1C[C@@H](O)[C@H](O)[C@@H](CO)O1` [Example 341, 3-amino-N-(4-((2R,4R,5S,6R)-4,5-dihydroxy-6-(hydroxymethyl)tetrahydro-2H-pyran-2-yl)pyridin-3-yl)-6-phenylpyrazine-2-carboxamide], for which the IC50 on PIM2 was more than 25000 nM; on FGFR3 kinase, 480 nM; at PKCα it was 650 nM; on PDGFRaV561D kinase, 880 nM.
With `CC[C@@H]1O[C@H](c2ccncc2NC(=O)c2nc(-c3ccccc3)cnc2N)C[C@H](N)[C@H]1O` [Example 342, 3-amino-N-(4-((2S,4S,5R,6S)-4-amino-6-ethyl-5-hydroxytetrahydro-2H-pyran-2-yl)pyridin-3-yl)-6-phenylpyrazine-2-carboxamide], the IC50 on PIM2 came to 1370 nM; at FGFR3 kinase, 1600 nM; at PKCα, 71 nM; at PDGFRaV561D kinase, 140 nM.
Turning to `CC[C@H]1O[C@@H](c2ccncc2NC(=O)c2nc(-c3ccccc3)cnc2N)C[C@@H](N)[C@@H]1O` [Example 343, 3-amino-N-(4-((2R,4R,5S,6R)-4-amino-6-ethyl-5-hydroxytetrahydro-2H-pyran-2-yl)pyridin-3-yl)-6-phenylpyrazine-2-carboxamide], the IC50 on PIM2 was found to be 49.1 nM; on FGFR3 kinase it was 35 nM; at PKCα, 23 nM; at PDGFRaV561D kinase it was 12 nM.
In the case of `C[C@]1(O)[C@H](N)C[C@H](c2ccncc2NC(=O)c2nc(-c3ccccc3)cnc2N)O[C@@H]1C1CC1` [Example 344, 3-amino-N-(4-((2R,4R,5S,6R)-4-amino-6-cyclopropyl-5-hydroxy-5-methyltetrahydro-2H-pyran-2-yl)pyridin-3-yl)-6-phenylpyrazine-2-carboxamide], the half-inhibitory concentration (IC50) on PIM2 was 106 nM; on FGFR3 kinase, 440 nM; at PKCα it was 110 nM; on PDGFRaV561D kinase, 110 nM.
Consider `CC[C@@H]1O[C@H](c2ccncc2NC(=O)c2nc(-c3ccccc3)cnc2N)C[C@H](N)[C@@]1(C)O` [Example 345, 3-amino-N-(4-((2S,4S,5R,6S)-4-amino-6-ethyl-5-hydroxy-5-methyltetrahydro-2H-pyran-2-yl)pyridin-3-yl)-6-phenylpyrazine-2-carboxamide], for which the concentration for half-maximal inhibition (IC50) is 7810 nM on PIM2, more than 10000 nM against FGFR3 kinase, 660 nM on PKCα and 7400 nM at PDGFRaV561D kinase.
Consider `Nc1ncc(-c2ccccc2)nc1C(=O)Nc1cnccc1[C@H]1C[C@@H](N)[C@H](O)[C@@H](C2CC2)O1` [Example 346, 3-amino-N-(4-((2R,4R,5S,6R)-4-amino-6-cyclopropyl-5-hydroxytetrahydro-2H-pyran-2-yl)pyridin-3-yl)-6-phenylpyrazine-2-carboxamide], for which the IC50 at PIM2 stood at 62.7 nM; on FGFR3 kinase, 180 nM; at PKCα it was 60 nM; at PDGFRaV561D kinase it was 72 nM.
